# Test results reported in patent US12486302B2, “Somatostatin receptor antagonist compounds and methods of using the same” (CDRD VENTURES INC., priority 2016, dated 2025).
# Where a SMILES comes first, the peptide text is derived from it. Bridges are numbered along the chain shown (N, C = ends). Side-chain parts run from the residue outwards. [ ]: non-standard residue; d: D form. The star is where a group is joined. dPhe(4-CH2NH2) = NCc1ccc(C[C@@H](N)C(=O)O)cc1; dPhe(4-NH2) = Nc1ccc(C[C@@H](N)C(=O)O)cc1; Phe(4-Cl) = N[C@@H](Cc1ccc(Cl)cc1)C(=O)O; Cit = NC(=O)NCCC[C@H](N)C(=O)O; Nicotinoyl = O=C(c1cccnc1)*
# Tests used:
# [1] = biological target: somatostatin type 2 (SSTR2) receptors (Homo sapiens, UniProt P30874); assay: PathHunter β-Arrestin assay, antagonist mode, SSTR2; format: cell-based; settings: agonist challenge at EC80
# Chain of somatostatin type 2 (SSTR2) receptors (P30874 whole entry): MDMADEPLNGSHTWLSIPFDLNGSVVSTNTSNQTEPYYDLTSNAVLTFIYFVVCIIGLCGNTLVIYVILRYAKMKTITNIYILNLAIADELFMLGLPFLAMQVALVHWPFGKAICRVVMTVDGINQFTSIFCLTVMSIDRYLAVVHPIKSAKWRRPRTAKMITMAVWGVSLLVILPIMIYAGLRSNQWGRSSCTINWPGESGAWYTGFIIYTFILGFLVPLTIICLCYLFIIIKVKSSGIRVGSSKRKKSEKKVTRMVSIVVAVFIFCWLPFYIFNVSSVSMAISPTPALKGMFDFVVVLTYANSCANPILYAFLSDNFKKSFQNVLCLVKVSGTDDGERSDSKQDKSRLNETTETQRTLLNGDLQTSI
# In short: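 Cells co-expressing PK-tagged human receptor and EA-β-Arrestin were pre-incubated with compound, then challenged with agonist at EC80. β-Gal complementation read by chemiluminescence; % inhibition normalized to EC80 and vehicle controls at 10 concentrations (log 3 steps from 1 μM down to 5e-5 μM), fitted for IC50.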
# SSTR3 = SSTR3 (Homo sapiens, UniProt P32745); assay: PathHunter β-Arrestin assay, antagonist mode, SSTR3; format: cell-based; settings: agonist challenge at EC80
# Chain of SSTR3 (P32745 whole entry, the tested form may be a part): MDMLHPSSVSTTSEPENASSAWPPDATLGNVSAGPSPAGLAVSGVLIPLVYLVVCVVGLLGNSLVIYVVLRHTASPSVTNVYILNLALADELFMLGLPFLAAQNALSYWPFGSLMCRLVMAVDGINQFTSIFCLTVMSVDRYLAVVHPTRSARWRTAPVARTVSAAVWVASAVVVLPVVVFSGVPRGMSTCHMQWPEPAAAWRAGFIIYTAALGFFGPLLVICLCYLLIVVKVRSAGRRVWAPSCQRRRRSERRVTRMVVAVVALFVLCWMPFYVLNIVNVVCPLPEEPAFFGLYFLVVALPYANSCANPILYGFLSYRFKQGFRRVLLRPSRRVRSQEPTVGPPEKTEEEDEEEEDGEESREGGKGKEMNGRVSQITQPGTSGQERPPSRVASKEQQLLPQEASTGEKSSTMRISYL
# Experimental: The PathHunter® β-Arrestin assay monitors the activation of a GPCR in a homogenous, non-imaging assay format using a technology developed by DiscoveRx called Enzyme Fragment Complementation (EFC) with β-galactosidase (β-Gal) as the functional reporter. […] EA is fused to β-Arrestin and […] is fused to the GPCR of interest. When the GPCR is activated and β-Arrestin is recruited to the receptor, ED and EA complementation occurs, restoring β-Gal activity which is measured using chemiluminescent PathHunter® Detection Reagents. For antagonist determination, cells were pre-incubated with the compounds followed by agonist challenge at the EC80 concentration. Data was normalized to the maximal and minimal response observed in the presence of EC80 ligand and vehicle. Compound activity was analyzed using CBIS data analysis suite ChemInnovation, CA). Percentage inhibition was calculated using the following formula: % Inhibition=100%×(1−(mean signal of test sample-mean signal of vehicle control)/(mean signal of EC80 control-mean signal of vehicle control)). Percentage inhibition was calculated at 10 concentrations in steps on a Log 3 scale ranging from […] to 5e-5 μM. The results were plotted for IC50 calculation.
IC50 [1] [nM],IC50 (SSTR3) [nM],Compound
234,> 1000,"C[C@@H](O)[C@@H]1NC(=O)[C@H](CCCCN)NC(=O)[C@@H](Cc2ccc(NC(=O)[C@@H](N)CO)cc2)NC(=O)[C@H](Cc2ccc(O)cc2)NC(=O)[C@H](NC(=O)[C@@H](N)Cc2ccc(Cl)cc2)CSSC[C@@H](C(=O)N[C@H](Cc2ccc(O)cc2)C(N)=O)NC1=O [Compound 16, H-Cpa-cyclo[DCys- Tyr-D-4-(Ser) Aph-Lys-Thr- Cys]-DTyr-NH2] (H-[Phe(4-Cl)][dC]Y[dPhe(4-NH2)](Ser)KTC[dY]-NH2; disulfide 2-7)"
> 1000,> 1000,"C[C@@H](O)[C@@H]1NC(=O)[C@H](CCCCN)NC(=O)[C@@H](Cc2ccc(NC(=O)[C@@H](N)CC(N)=O)cc2)NC(=O)[C@H](Cc2ccc(O)cc2)NC(=O)[C@H](NC(=O)[C@@H](N)Cc2ccc(Cl)cc2)CSSC[C@@H](C(=O)N[C@H](Cc2ccc(O)cc2)C(N)=O)NC1=O [Compound 19, H-Cpa-cyclo[DCys- Tyr-D-4-(Asn) Aph-Lys-Thr- Cys]-DTyr-NH2] (H-[Phe(4-Cl)][dC]Y[dPhe(4-NH2)](Asn)KTC[dY]-NH2; disulfide 2-7)"
417,> 1000,"C[C@@H](O)[C@@H]1NC(=O)[C@H](CCCCN)NC(=O)[C@@H](Cc2ccc(NC(=O)[C@@H](N)CCCNC(N)=O)cc2)NC(=O)[C@H](Cc2ccc(O)cc2)NC(=O)[C@H](NC(=O)[C@@H](N)Cc2ccc(Cl)cc2)CSSC[C@@H](C(=O)N[C@H](Cc2ccc(O)cc2)C(N)=O)NC1=O [Compound 22, H-Cpa-cyclo[DCys- Tyr-D-4-(Cit)Aph- Lys-Thr-Cys]- DTyr-NH2] (H-[Phe(4-Cl)][dC]Y[dPhe(4-NH2)](Cit)KTC[dY]-NH2; disulfide 2-7)"

# More lines, now with the values behind:
Compound,IC50 [1] [nM],IC50 (SSTR3) [nM]
"C[C@@H](O)[C@@H]1NC(=O)[C@H](CCCCN)NC(=O)[C@@H](Cc2ccc(NC(=O)CN)cc2)NC(=O)[C@H](Cc2ccc(O)cc2)NC(=O)[C@H](NC(=O)[C@@H](N)Cc2ccc(Cl)cc2)CSSC[C@@H](C(=O)N[C@H](Cc2ccc(O)cc2)C(N)=O)NC1=O [Compound 8, H-Cpa-cyclo[DCys- Tyr-D-4-(Gly) Aph-Lys- Thr-Cys]-DTyr-NH2] (H-[Phe(4-Cl)][dC]Y[dPhe(4-NH2)](Gly)KTC[dY]-NH2; disulfide 2-7)",84,> 1000
"CC(=O)NCC(=O)Nc1ccc(C[C@H]2NC(=O)[C@H](Cc3ccc(O)cc3)NC(=O)[C@H](NC(=O)[C@@H](N)Cc3ccc(Cl)cc3)CSSC[C@@H](C(=O)N[C@H](Cc3ccc(O)cc3)C(N)=O)NC(=O)[C@H]([C@@H](C)O)NC(=O)[C@H](CCCCN)NC2=O)cc1 [Compound 9, H-Cpa-cyclo[DCys- Tyr-D-4-(Gly- Ac)Aph- Lys-Thr-Cys]- DTyr-NH2] (H-[Phe(4-Cl)][dC]Y[dPhe(4-NH2)]([Gly-Ac])KTC[dY]-NH2; disulfide 2-7)",104,> 1000
"CC(=O)NCc1ccc(C[C@H]2NC(=O)[C@H](Cc3ccc(O)cc3)NC(=O)[C@H](NC(=O)[C@@H](N)Cc3ccc(Cl)cc3)CSSC[C@@H](C(=O)N[C@H](Cc3ccc(O)cc3)C(N)=O)NC(=O)[C@H]([C@@H](C)O)NC(=O)[C@H](CCCCN)NC2=O)cc1 [Compound 6, H-Cpa-cyclo[DCys- Tyr-D-(4- acetamido- methyl)Phe- Lys-Thr-Cys]-DTyr- NH2] (H-[Phe(4-Cl)][dC]Y[dPhe(4-CH2NH2)](Ac)KTC[dY]-NH2; disulfide 2-7)",166,> 1000
"C[C@@H](O)[C@@H]1NC(=O)[C@H](CCCCN)NC(=O)[C@@H](CCCCNC(=O)c2cccnc2)NC(=O)[C@H](Cc2ccc(O)cc2)NC(=O)[C@H](NC(=O)[C@@H](N)Cc2ccc(Cl)cc2)CSSC[C@@H](C(=O)N[C@H](Cc2ccc(O)cc2)C(N)=O)NC1=O [Compound 3, H-Cpa-cyclo[DCys- Tyr-D-(N^ϵ- nicotinoyl)Lys-Lys- Thr-Cys]-DTyr-NH2] (H-[Phe(4-Cl)][dC]Y[dK](Nicotinoyl)KTC[dY]-NH2; disulfide 2-7)",251,> 1000
